# Like-named read-outs stand apart in the source and are kept apart here.
# What was measured:
# [1] = target: T1, endogenous CD38 in HL60 cells (Homo sapiens, UniProt P28907); assay: cellular CD38 assay in HL60 cells (cellular NAD levels); assay type: cell-based; details: all-trans retinoic acid, 24 hours, read-out: hCD38 HL60 ATRA NAD Cell Diaphorase IC50
# T1 construct: endogenous in cells; host or cells: HL60 (leukemic cells, treated with all-trans retinoic acid)
# T1 sequence (P28907 1-300): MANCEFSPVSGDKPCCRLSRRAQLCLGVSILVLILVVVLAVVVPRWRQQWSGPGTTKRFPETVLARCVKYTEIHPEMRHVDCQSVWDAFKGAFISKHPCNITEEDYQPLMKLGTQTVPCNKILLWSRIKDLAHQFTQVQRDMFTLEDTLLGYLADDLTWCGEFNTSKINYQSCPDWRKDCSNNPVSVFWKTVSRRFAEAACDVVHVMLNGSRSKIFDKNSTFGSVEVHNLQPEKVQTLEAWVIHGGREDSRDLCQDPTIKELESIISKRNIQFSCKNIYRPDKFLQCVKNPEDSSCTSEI
# Outline: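 Endogenous CD38 inhibition is inferred from NAD levels in HL60 cells after 24 h compound exposure at 20000 cells per well. A lytic cycling readout (0.2 U/mL diaphorase, 0.8 U/mL alcohol dehydrogenase, resazurin, FMN, ethanol, 0.2% Triton X-100, Tris/EDTA pH 8.4) ran 60 min at ambient temperature. Resorufin fluorescence was read at 540/590 nm.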
# CYP2C9 = target: T2, CYP2C9 (Homo sapiens, UniProt P11712); assay: direct inhibition of CYP450 in human liver microsomes; assay type: in vitro ADME; details: for activity at 3 µM / activity at 10 µM / activity at 50 µM: % of non-inhibited control, read-out: CYP2C9 T0 % activity; for IC50: estimated from 3, 10, 50 uM, read-out: CYP2C9 T0 estimated IC50
# T2 construct: from tissue; host or cells: human liver microsomes (pooled in the time-dependent assay)
# T2 sequence (P11712 whole entry): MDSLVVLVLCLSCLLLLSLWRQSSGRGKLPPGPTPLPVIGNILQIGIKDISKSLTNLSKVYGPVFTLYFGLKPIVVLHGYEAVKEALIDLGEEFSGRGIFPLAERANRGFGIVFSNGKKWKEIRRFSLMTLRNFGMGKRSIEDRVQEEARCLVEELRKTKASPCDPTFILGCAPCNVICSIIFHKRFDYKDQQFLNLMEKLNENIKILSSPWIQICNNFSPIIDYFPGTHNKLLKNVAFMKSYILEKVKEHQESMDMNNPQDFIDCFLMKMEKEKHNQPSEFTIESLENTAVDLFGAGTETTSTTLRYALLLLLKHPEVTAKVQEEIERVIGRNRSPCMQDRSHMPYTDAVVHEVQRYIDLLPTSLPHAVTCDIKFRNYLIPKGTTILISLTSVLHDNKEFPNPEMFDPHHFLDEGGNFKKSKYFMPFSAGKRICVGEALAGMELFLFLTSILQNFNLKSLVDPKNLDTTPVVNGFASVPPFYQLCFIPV
# Description: (§1) Direct inhibition: […] A Perspective of the Pharmaceutical Research and Manufacturers of America”, Drug Metabolism and Disposition, 37 (7): 1355, 2009). For 3A4, the % activity was measured using both midazolam and testosterone as probes. Each compound at 3, 10, and 50 μM was incubated with HLM, NADPH and CYP isoenzyme specific probe substrates at 37° C. Inhibition of the probe substrate metabolism was quantified using LC/MS/MS. […] Known chemical inhibitors specific for the individual CYP isoenzymes were evaluated in parallel as positive controls and these compounds produced CYP inhibition consistent with published results (Walsky & Obach RS. “Validated assays for human cytochrome P450 activities”. Drug Metab Dispos. 32(6):647-60, 2004). Note that, in Tables 6 and 7, the “Compound No” corresponds to the compound numbers in Table 1.
# CYP2B6 = target: T3, CYP2B6 (Homo sapiens, UniProt P20813); assay: as above; assay type: in vitro ADME; details: for activity at 3 µM / activity at 10 µM / activity at 50 µM: % of non-inhibited control, read-out: CYP2B6 T0 % activity; for IC50: estimated from 3, 10, 50 uM, read-out: CYP2B6 T0 estimated IC50
# T3 construct: from tissue; host or cells: human liver microsomes (pooled in the time-dependent assay)
# T3 sequence (P20813 1-491): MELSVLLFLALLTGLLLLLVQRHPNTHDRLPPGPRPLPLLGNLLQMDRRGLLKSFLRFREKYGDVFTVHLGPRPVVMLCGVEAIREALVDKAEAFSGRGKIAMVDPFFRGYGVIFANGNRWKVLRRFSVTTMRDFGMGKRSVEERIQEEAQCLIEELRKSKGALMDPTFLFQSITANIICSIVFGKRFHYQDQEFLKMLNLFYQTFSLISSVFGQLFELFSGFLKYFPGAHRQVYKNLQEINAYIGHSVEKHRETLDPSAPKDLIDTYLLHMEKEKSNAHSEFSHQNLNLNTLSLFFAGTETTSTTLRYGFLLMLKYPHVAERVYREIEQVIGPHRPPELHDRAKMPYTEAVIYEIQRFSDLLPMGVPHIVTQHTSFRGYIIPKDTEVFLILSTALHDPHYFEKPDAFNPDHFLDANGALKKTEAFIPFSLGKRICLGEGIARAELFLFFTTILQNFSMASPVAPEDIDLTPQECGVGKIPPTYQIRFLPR
# Description: as §1
# CYP1A2 = target: T4, CYP1A2 (Homo sapiens, UniProt P05177); assay: as above; assay type: in vitro ADME
# T4 construct: from tissue; host or cells: human liver microsomes (pooled in the time-dependent assay)
# T4 sequence (P05177 1-516): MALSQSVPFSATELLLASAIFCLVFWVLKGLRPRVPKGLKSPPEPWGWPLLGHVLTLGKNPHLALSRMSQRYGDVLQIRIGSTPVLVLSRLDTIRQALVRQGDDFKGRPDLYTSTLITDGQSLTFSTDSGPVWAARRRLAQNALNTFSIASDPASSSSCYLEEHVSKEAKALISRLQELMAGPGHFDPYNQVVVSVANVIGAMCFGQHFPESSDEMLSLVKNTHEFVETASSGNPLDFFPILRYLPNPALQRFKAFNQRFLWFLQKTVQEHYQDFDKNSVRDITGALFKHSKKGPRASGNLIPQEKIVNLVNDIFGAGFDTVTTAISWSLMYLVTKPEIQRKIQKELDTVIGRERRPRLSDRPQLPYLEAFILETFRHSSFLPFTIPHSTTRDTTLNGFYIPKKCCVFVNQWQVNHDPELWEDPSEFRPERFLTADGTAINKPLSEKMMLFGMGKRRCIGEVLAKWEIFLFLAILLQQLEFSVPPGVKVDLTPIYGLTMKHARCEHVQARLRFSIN
# Description: as §1
# CYP2C19 = target: T5, CYP2C19 (Homo sapiens, UniProt P33261); assay: as above; assay type: in vitro ADME; details: for activity at 3 µM / activity at 10 µM / activity at 50 µM: % of non-inhibited control, read-out: CYP2C19 T0 % activity; for IC50: estimated from 3, 10, 50 uM, read-out: CYP2C19 T0 estimated IC50
# T5 construct: from tissue; host or cells: human liver microsomes (pooled in the time-dependent assay)
# T5 sequence (P33261 whole entry): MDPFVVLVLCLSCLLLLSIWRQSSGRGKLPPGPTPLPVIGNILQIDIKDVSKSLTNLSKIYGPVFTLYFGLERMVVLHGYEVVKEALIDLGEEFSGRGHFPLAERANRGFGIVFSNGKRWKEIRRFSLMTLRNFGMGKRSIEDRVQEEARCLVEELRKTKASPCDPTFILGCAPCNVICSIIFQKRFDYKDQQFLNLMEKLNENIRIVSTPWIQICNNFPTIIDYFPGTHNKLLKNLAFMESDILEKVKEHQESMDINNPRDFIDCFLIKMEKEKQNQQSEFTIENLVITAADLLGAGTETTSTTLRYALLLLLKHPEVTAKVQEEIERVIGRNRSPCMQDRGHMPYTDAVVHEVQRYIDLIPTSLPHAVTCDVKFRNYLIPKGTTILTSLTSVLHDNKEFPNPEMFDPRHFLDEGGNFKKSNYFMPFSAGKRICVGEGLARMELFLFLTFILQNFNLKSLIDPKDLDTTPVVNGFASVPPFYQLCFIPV
# Description: as §1
# [2] = 3 uM, human liver microsomes, % of non-inhibited control, read-out: CYP1A2 T0 % activity
# [3] = 10 uM, human liver microsomes, % of non-inhibited control, read-out: CYP1A2 T0 % activity
# [4] = 50 uM, human liver microsomes, % of non-inhibited control, read-out: CYP1A2 T0 % activity
# [5] = human liver microsomes, estimated from 3, 10, 50 uM, read-out: CYP1A2 T0 estimated IC50
Structure (SMILES),IC50 [1] [µM],activity at 3 µM (CYP2C9) [%],activity at 10 µM (CYP2C9) [%],activity at 50 µM (CYP2C9) [%],IC50 (CYP2C9) [µM],activity at 3 µM (CYP2B6) [%],activity at 10 µM (CYP2B6) [%],activity at 50 µM (CYP2B6) [%],IC50 (CYP2B6) [µM],activity at 3 µM (CYP1A2; [2]) [%],activity at 10 µM (CYP1A2; [3]) [%],activity at 50 µM (CYP1A2; [4]) [%],IC50 (CYP1A2; [5]) [µM],activity at 3 µM (CYP2C19) [%],activity at 10 µM (CYP2C19) [%],activity at 50 µM (CYP2C19) [%],IC50 (CYP2C19) [µM],also measured
"CC(C)(O)c1ccc(NC(=O)c2nccc(-n3ccnc3)n2)cn1 [Compound 249, N-(6-(2-hydroxypropan-2-yl)pyridin-3-yl)-4-(1H-imidazol-1-yl)pyrimidine-2-carboxamide]",0.838,106,103,92,> 50,98,98,92,> 50,–,–,–,–,95,96,74,> 50,"IC50 (CYP1A2): > 50 µM; activity at 3 µM (CYP1A2; human, microsomes): 99%; activity at 10 µM (CYP1A2; human, microsomes): 93%; activity at 50 µM (CYP1A2; human, microsomes): 81%"
"Cn1cncc1-c1ccnc(C(=O)Nc2ccc(C(C)(C)O)nc2)n1 [Compound 250, N-(6-(2-hydroxypropan-2-yl)pyridin-3-yl)-4-(1-methyl-1H-imidazol-5-yl)pyrimidine-2-carboxamide]",0.924,99,94,89,> 50,101,99,89,> 50,–,–,–,–,88,88,66,> 50,"IC50 (CYP1A2): < 50 µM; activity at 3 µM (CYP1A2; human, microsomes): 88%; activity at 10 µM (CYP1A2; human, microsomes): 69%; activity at 50 µM (CYP1A2; human, microsomes): 34%"
"CO[C@H]1CC[C@H](NC(=O)c2cc(C3(C)COC3)nc(-c3cncn3C)n2)CC1 [Compound 295, N-((1r,4r)-4-methoxycyclohexyl)-2-(1-methyl-1H-imidazol-5-yl)-6-(3-methyloxetan-3-yl)pyrimidine-4-carboxamide]",2.31,91,85,63,> 50,96,91,79,> 50,101,98,97,> 50,108,100,79,> 50,–

# The next lines start with results.
IC50 [1] [µM],activity at 3 µM (CYP2C9) [%],activity at 10 µM (CYP2C9) [%],activity at 50 µM (CYP2C9) [%],IC50 (CYP2C9) [µM],activity at 3 µM (CYP2B6) [%],activity at 10 µM (CYP2B6) [%],activity at 50 µM (CYP2B6) [%],IC50 (CYP2B6) [µM],activity at 3 µM (CYP1A2; [2]) [%],activity at 10 µM (CYP1A2; [3]) [%],activity at 50 µM (CYP1A2; [4]) [%],IC50 (CYP1A2; [5]) [µM],activity at 3 µM (CYP2C19) [%],activity at 10 µM (CYP2C19) [%],activity at 50 µM (CYP2C19) [%],IC50 (CYP2C19) [µM],Structure (SMILES),also measured
1.89,–,–,–,–,–,–,–,–,–,–,–,–,–,–,–,–,"CO[C@H]1CC[C@H](NC(=O)c2nccc(-c3cncn3C)n2)CC1 [Compound 148, N-((1r,4r)-4-methoxycyclohexyl)-4-(1-methyl-1H-imidazol-5-yl)pyrimidine-2-carboxamide]",–
2.63,101,96,69,> 50,95,80,53,> 50,96,96,85,> 50,92,85,39,< 50,"CO[C@H]1CC[C@H](NC(=O)c2cc(C3CCOCC3)nc(-c3cncn3C)n2)CC1 [Compound 199, N-((1r,4r)-4-methoxycyclohexyl)-2-(1-methyl-1H-imidazol-5-yl)-6-(tetrahydro-2H-pyran-4-yl)pyrimidine-4-carboxamide]",–
3.61,90,94,86,> 50,103,101,91,> 50,94,92,78,> 50,97,96,88,> 50,"Cn1cncc1-c1ccnc(C(=O)N[C@H]2CC[C@H](O)CC2)n1 [Compound 256, N-((1r,4r)-4-hydroxycyclohexyl)-4-(1-methyl-1H-imidazol-5-yl)pyrimidine-2-carboxamide]",–
1.9,96,81,49,< 50,98,95,79,> 50,100,95,81,> 50,83,63,23,< 50,"CO[C@H]1CC[C@H](NC(=O)c2cc(C3CCC(F)(F)CC3)nc(-c3cncn3C)n2)CC1 [Compound 289, 6-(4,4-difluorocyclohexyl)-N-((1r,4r)-4-methoxycyclohexyl)-2-(1-methyl-1H-imidazol-5-yl)pyrimidine-4-carboxamide]",–

# Source: patent publication US20230116972A1, “CD38 MODULATORS AND METHODS OF USE THEREOF” (Cytokinetics, Inc., priority 2021, published 2023)
